Read-outs that look alike come from different tables or passages of the source.

For this experiment, the system named is recombinant NL4-3 virus (Renilla luciferase) in MT-2 cells. In words: HIV cell culture assay (antiviral activity, luciferase readout in infected MT-2 cells). It is filed as cell-based. A digest of the protocol:
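Nef-deleted NL4-3 carrying Renilla luciferase, produced by 293T transfection, used to infect MT-2 cells for 4–5 days with serial compound dilutions. Live-cell luciferase signal read as infection marker; EC50 from exponential median-effect equation.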

Setting [1] is: Renilla, NL43, read-out: Activity, antiviral activity class, recombinant NL4-3 Renilla luciferase virus in MT-2 cells.
The mark [2] stands for this setting: Renilla, NL43, recombinant NL4-3 Renilla luciferase virus in MT-2 cells.
Setting [3] is: recombinant NL4-3 Renilla luciferase virus in MT-2 cells, read-out: EC50.

For the molecule `Cc1ccccc1S(=O)(=O)NC(=O)N[C@@H](Cc1cc(F)cc(F)c1)C(=O)N(C)c1cccc(Cl)c1` [Example CA-111, (S)—N-(3-chlorophenyl)-3-(3,5-difluorophenyl)-N-methyl-2-(3-(o-tolylsulfonyl)ureido)propanamide], the EC50 under setting [1] fell in the range of 1000 to 10000 nM.
As for `Cc1ccccc1S(=O)(=O)NC(=O)N[C@@H](Cc1cc(F)cc(F)c1)C(=O)N(C)c1ccc(F)cc1F` [Example CA-112, (S)—N-(2,4-difluorophenyl)-3-(3,5-difluorophenyl)-N-methyl-2-(3-(o-tolylsulfonyl)ureido)propanamide], the EC50 was 1000 to 10000 nM under setting [1] and 1290 nM under setting [2].
As to `COc1cc(N(C)C(=O)[C@H](Cc2ccccc2)NC(=O)NS(=O)(=O)c2ccccc2C)cc(OC)c1OC` [Example JB-82, (S)—N-methyl-3-phenyl-2-(3-(o-tolylsulfonyl)ureido)-N-(3,4,5-trimethoxyphenyl)propanamide], the EC50 under setting [1] lay within 1000 to 10000 nM.
On to `COc1ccc(N(C)C(=O)[C@H](Cc2ccccc2)NC(=O)NS(=O)(=O)c2ccccc2C)c(C)c1` [Example JB-83, (S)—N-(4-methoxy-2-methylphenyl)-N-methyl-3-phenyl-2-(3-(o-tolylsulfonyl)ureido)propanamide], for which, under setting [1], the EC50 lay within 100 to 1000 nM.
Same read-out and setting: for `COc1cc(C)c(N(C)C(=O)[C@H](Cc2ccccc2)NC(=O)NS(=O)(=O)c2ccccc2C)cc1C` [Example JB-84, (S)—N-(4-methoxy-2,5-dimethylphenyl)-N-methyl-3-phenyl-2-(3-(o-tolylsulfonyl)ureido)propanamide] the value was 100 to 1000 nM; for `COc1ccc(N(C)C(=O)[C@H](Cc2ccccc2)NC(=O)NS(=O)(=O)c2c(C)n(C)c3ccccc23)cc1` [Example JB-85, (S)-2-(3-((1,2-dimethyl-1H-indol-3-yl)sulfonyl)ureido)-N-(4-methoxyphenyl)-N-methyl-3-phenylpropanamide], 100 to 1000 nM.
As to `COc1ccc(N(Cc2ccccc2)C(=O)[C@H](Cc2ccccc2)NC(=O)NS(=O)(=O)c2ccccc2C)cc1` [Example ZY-3, (S)—N-benzyl-N-(4-methoxyphenyl)-3-phenyl-2-(3-(o-tolylsulfonyl)ureido)propanamide], the EC50 was 1000 to 10000 nM under setting [1] and 3610 nM under setting [2].
Consider `COc1ccc(N(Cc2ccncc2)C(=O)[C@H](Cc2ccccc2)NC(=O)NS(=O)(=O)c2ccccc2C)cc1` [Example ZY-4, (S)—N-(4-methoxyphenyl)-3-phenyl-N-(pyridin-4-ylmethyl)-2-(3-(o-tolylsulfonyl)ureido)propanamide], for which the EC50 under setting [1] lay in the range of 1000 to 10000 nM.
On to `COc1ccc(N(CCc2ccccc2)C(=O)[C@H](Cc2ccccc2)NC(=O)NS(=O)(=O)c2ccccc2C)cc1` [Example ZY-5, (S)—N-(4-methoxyphenyl)-N-phenethyl-3-phenyl-2-(3-(o-tolylsulfonyl)ureido)propanamide], for which the EC50 is, setting by setting: under setting [1], 10000 to 100000 nM; under setting [2], 11400 nM.
On to `COc1ccc(N(CC(C)C)C(=O)[C@H](Cc2ccccc2)NC(=O)NS(=O)(=O)c2ccccc2C)cc1` [Example ZY-6, (S)—N-isobutyl-N-(4-methoxyphenyl)-3-phenyl-2-(3-(o-tolylsulfonyl)ureido)propanamide], for which the EC50 under setting [1] lay in the range of 1000 to 10000 nM.
Same read-out and setting: with `Cc1ccccc1S(=O)(=O)NC(=O)N[C@@H](Cc1cc(F)cc(F)c1)C(=O)N(C)c1ccc2scnc2c1` [Example ZY-7, (S)—N-(benzo[d]thiazol-5-yl)-3-(3,5-difluorophenyl)-N-methyl-2-(3-(o-tolylsulfonyl)ureido)propanamide] the figure was less than 100 nM.
Regarding `CN(C(=O)[C@H](Cc1cc(F)cc(F)c1)NC(=O)NS(=O)(=O)c1ccccc1Cl)c1ccc2scnc2c1` [Example ZY-13, (S)—N-(benzo[d]thiazol-5-yl)-2-(3-((2-chlorophenyl)sulfonyl)ureido)-3-(3,5-difluorophenyl)-N-methylpropanamide], the EC50 was less than 100 nM under setting [1] and 30 nM under setting [2].
As to `CN(C(=O)[C@H](Cc1cc(F)cc(F)c1)NC(=O)NS(=O)(=O)c1cc(F)ccc1F)c1ccc2scnc2c1` [Example ZY-14, (S)—N-(benzo[d]thiazol-5-yl)-3-(3,5-difluorophenyl)-2-(3-((2,5-difluorophenyl)sulfonyl)ureido)-N-methylpropanamide], the EC50 under setting [1] lay within 100 to 1000 nM.
The same measure, in the same setting: with `CN(C(=O)[C@H](Cc1cc(F)cc(F)c1)NC(=O)NS(=O)(=O)c1ccccc1F)c1ccc2scnc2c1` [Example ZY-16, (S)—N-(benzo[d]thiazol-5-yl)-3-(3,5-difluorophenyl)-2-(3-((2-fluorophenyl)sulfonyl)ureido)-N-methylpropanamide] the figure was less than 100 nM.
Same read-out and setting: for `CN(C(=O)[C@H](Cc1cc(F)cc(F)c1)NC(=O)NS(=O)(=O)c1ccc(F)cc1F)c1ccc2scnc2c1` [Example ZY-17, (S)—N-(benzo[d]thiazol-5-yl)-3-(3,5-difluorophenyl)-2-(3-((2,4-difluorophenyl)sulfonyl)ureido)-N-methylpropanamide] the value was 100 to 1000 nM.
In the case of “(S)-2-(3-([1,1′-biphenyl]-2-ylsulfonyl)ureido)-N-(benzo[d][1,3]dioxol-5-yl)-N-methyl-3-phenylpropanamide [Example 48]”, the EC50 (antiviral activity class, recombinant NL4-3 Renilla luciferase virus in MT-2 cells, read-out: Activity) was 1000 to 10000 nM.
Take “(S)—N-((1-(3,3-dimethylazetidin-1-yl)-1-oxo-3-phenylpropan-2-yl)carbamoyl)-2-methylbenzenesulfonamide [Example 191]”: under setting [3], the EC50 is greater than 100000 nM.
Same read-out and setting: with “(S)—N-((1-(3-methoxyazetidin-1-yl)-1-oxo-3-phenylpropan-2-yl)carbamoyl)-2-methylbenzenesulfonamide [Example 190]” the figure was greater than 100000 nM.

The values above are taken from US10035760B2, “Inhibitors of human immunodeficiency virus replication” (priority 2013, dated 2018).
